Experimental data as given in publication PMC8710297, “Identification of potent SENP1 inhibitors that inactivate SENP1/JAK2/STAT signaling pathway and overcome platinum drug resistance in ovarian cancer” (Clinical and Translational Medicine, 2021).

Target: T1, SENP1(C603A) (Homo sapiens, UniProt Q9P0U3, C603A)
T1 construct: GST; made in house
T1 sequence (Q9P0U3 1-644 C603A): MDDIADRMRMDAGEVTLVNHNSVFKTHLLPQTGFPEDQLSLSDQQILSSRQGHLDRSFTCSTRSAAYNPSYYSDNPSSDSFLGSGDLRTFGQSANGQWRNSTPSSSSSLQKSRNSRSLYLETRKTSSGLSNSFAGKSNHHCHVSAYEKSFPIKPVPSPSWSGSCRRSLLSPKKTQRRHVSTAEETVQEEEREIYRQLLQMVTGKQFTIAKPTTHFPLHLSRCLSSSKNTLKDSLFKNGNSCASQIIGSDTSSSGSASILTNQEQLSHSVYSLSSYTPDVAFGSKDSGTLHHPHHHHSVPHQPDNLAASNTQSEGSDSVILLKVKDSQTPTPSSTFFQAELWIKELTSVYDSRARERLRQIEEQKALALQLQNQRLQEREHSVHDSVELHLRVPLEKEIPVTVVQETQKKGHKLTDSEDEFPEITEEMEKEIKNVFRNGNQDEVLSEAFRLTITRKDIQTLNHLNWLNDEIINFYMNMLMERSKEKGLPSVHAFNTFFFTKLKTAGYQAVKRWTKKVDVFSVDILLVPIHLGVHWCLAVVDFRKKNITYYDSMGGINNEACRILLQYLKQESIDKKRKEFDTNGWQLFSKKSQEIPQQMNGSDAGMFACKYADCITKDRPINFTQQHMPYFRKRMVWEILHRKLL
Experiment: In vitro thermal shift assay with mutant GST-SENP1(C603A)
Type: binding
Conditions: compared to DMSO
Description: FIGURE 2 UA directly interacts with Sentrin‐specific protease 1 (SENP1). (A) Cellular thermal shift assay to examine the interaction of UA with SENP1. IGROV1 CR cells pretreated with MG132 (10 μM, 1 h) were incubated with DMSO or UA for 4 h before being shifted to indicated temperatures. SENP1 stability was analyzed by using Western blot against SENP1 antibody. Right panel, quantification of non‐denatured SENP1 fraction shown in the left panel. (B) Cell‐free thermal shift assay to examine interactions of UA with SENP1. Purified SENP1 proteins were incubated with DMSO or UA for 4 h before being shifted to the indicated temperatures. SENP1 stability was analyzed by using Western blot against SENP1 antibody. Right panel, quantification of non‐denatured SENP1 fraction shown in the left panel. (C) The predicted docking pose of UA (C: green; H: white; O: red) at the hydrophobic catalytic cleft of SENP1 (C: salmon; H: white; O: red; N: blue). Key amino acid residues were highlighted. […] Stability of SENP1(C603A) was analyzed by using Western blot against SENP1 antibody. […] Left; Ultra‐high performance liquid‐chromatography‐MS/MS analyses of associated UA in indicated samples, right; quantification of data shown in left (the binding affinity of UA with SENP1‐C603A was normalized as 1). […]
The qu anti ficatio n of immunohistochemical sta in ing wa s scored blindly at lea st by two independent obser vers. […]

thermal stability of purified mutant SENP1(C603A) | SMILES
not increased | CC1(C)CC[C@]2(C(=O)O)CC[C@]3(C)C(=CC[C@@H]4[C@@]5(C)CC[C@H](O[C@@H]6O[C@H](C(=O)O)[C@@H](O)[C@H](O[C@@H]7OC[C@@H](O)[C@H](O)[C@H]7O)[C@H]6O)C(C)(C)[C@@H]5CC[C@]43C)[C@@H]2C1 [Mc, Momordin Ιc]
not increased | C[C@H]1[C@H](C)CC[C@]2(C(=O)O)CC[C@]3(C)C(=CC[C@@H]4[C@@]5(C)CC[C@H](O)C(C)(C)[C@@H]5CC[C@]43C)[C@H]12 [UA, ursolic acid, reference compound]
